Results as given in ChEMBL document CHEMBL3580598, “Limonoids and Triterpenoids from Dysoxylum mollissimum var. glaberrimum” (J Nat Prod, 2015).
pIC50: −log10 of the molar value.

Assays:
A549 [1] = test: Cytotoxicity against human A549 cells assessed as inhibition of cell growth at 10 uM by SRB protein staining method; type: functional; conditions: read-out: GI
P388 [2] = test: Cytotoxicity against mouse P388 cells assessed as inhibition of cell growth at 10 uM by MTT method; type: functional; conditions: read-out: GI
HL-60 [3] = test: Cytotoxicity against human HL60 cells assessed as inhibition of cell growth at 10 uM by MTT method; type: functional; conditions: read-out: GI
P388 [4] = test: Cytotoxicity against mouse P388 cells by MTT method; type: functional, cell-based
HL-60 [5] = test: Cytotoxicity against human HL60 cells by MTT method; type: functional, cell-based
A549 [6] = test: Cytotoxicity against human A549 cells by SRB protein staining method; type: functional, cell-based

Row | SMILES | inhibition of growth at 10 µM (A549 [1]) [%] | inhibition of growth at 10 µM (P388 [2]) [%] | inhibition of growth at 10 µM (HL-60 [3]) [%] | pIC50 (P388 [4]) | pIC50 (HL-60 [5]) | pIC50 (A549 [6])
1 | CC1(C)C(=O)CC[C@]2(C)[C@H]3CC[C@]4(C)C(=CC[C@H]4C4=CC(=O)OC4)[C@]3(C)[C@H](OC(=O)c3ccccc3)C[C@@H]12 | < 50 | < 50 | < 50 | – | – | –
2 | C=C1[C@@H]([C@@]2(C)C=CC(=O)O[C@@](C)(COC(C)=O)[C@@H]2CC(=O)OC)[C@@H](OC=O)[C@H](OC(=O)C(O)C(C)C)[C@@]2(C)[C@H](c3ccoc3)[C@@H](OC(=O)C(OC(C)=O)C(C)C)[C@H]3O[C@]132 (some centres undefined) | < 50 | < 50 | < 50 | – | – | –
3 | COc1cccc2c1C(=O)c1c(O)c3c(c(O)c1C2=O)C[C@@](O)(C(=O)CO)C[C@@H]3O[C@H]1C[C@H](N)[C@H](O)[C@H](C)O1 [DOXORUBICIN] | – | – | – | 6.70 | 7.24 | –
4 | C=C(C)[C@@H]1C[C@@H](O)[C@@]2(C)C3=C[C@H](OC(C)=O)[C@@H](c4ccoc4)[C@]3(C)CC[C@@H]2[C@@]1(C)[C@@H](O)CC(=O)OC | < 50 | < 50 | < 50 | – | – | –
5 | CC(=O)O[C@H]1CC(=O)O[C@@]2(C)CO[C@H]3[C@@H](OC(=O)C(O)C(C)C)[C@]4(C)[C@H](CC[C@@]5(C)[C@H](c6ccoc6)OC(=O)[C@H]6O[C@@]645)[C@]1(C)[C@@H]32 (some centres undefined) | < 50 | < 50 | < 50 | – | – | –
6 | C[C@@H]([C@@H]1O[C@H]1[C@@H](O)C(C)(C)O)[C@@H]1CC[C@]2(C)C3=CC[C@H]4C(C)(C)C(=O)CC[C@]4(C)[C@H]3CC[C@@]12C | < 50 | < 50 | < 50 | – | – | –
7 | C=C1[C@@H]([C@@]2(C)[C@@H](OC(C)=O)CC(=O)O[C@@](C)(COC(C)=O)[C@@H]2CC(=O)OC)[C@@H](C(=O)O)[C@H](OC(=O)C(O)C(C)C)[C@@]2(C)[C@H](c3ccoc3)C(OC(=O)C(C)CC)[C@H]3O[C@]132 (some centres undefined) | – | – | – | – | – | 5.68
8 | C[C@@H]([C@@H]1O[C@H]1[C@H](O)C(C)(C)O)[C@@H]1CC[C@]2(C)C3=CC[C@H]4C(C)(C)C(=O)CC[C@]4(C)[C@H]3CC[C@@]12C | < 50 | – | < 50 | – | – | –
9 | CC(=O)O[C@H]1CC(=O)O[C@@]2(C)CO[C@H]3[C@@H](O)[C@]4(C)[C@H](CC[C@@]5(C)[C@H](c6ccoc6)OC(=O)[C@H]6O[C@@]645)[C@]1(C)[C@@H]32 | < 50 | < 50 | < 50 | – | – | –
10 | COC(=O)C[C@H](OC(C)=O)[C@]1(C)[C@H]2CC[C@@]3(C)[C@H](c4ccoc4)OC(=O)[C@H]4O[C@]43[C@]2(C)[C@H](OC(C)=O)[C@H](OC(C)=O)[C@H]1C(C)(C)O | < 50 | < 50 | < 50 | – | – | –
11 | CC(=O)O[C@@H]1C[C@H]2C(C)(C)[C@H](O)CC[C@]2(C)[C@H]2CC[C@]3(C)C(=CC[C@H]3[C@@]3(O)COC(=O)C3)[C@@]21C | < 50 | < 50 | < 50 | – | – | –
